# Experimental data from patent US7652054B2, “Tricyclic compounds useful as angiotensin II agonists” (Vicore Pharma AB, priority 2001, dated 2010).
# System: duodenal mucosal alkaline secretion
# Assay: Test C: duodenal mucosal alkaline secretion assay
# Type: in vivo
# Conditions: co-administration with title compounds of the Examples, anaesthetised rats
# From the text: Duodenal Mucosal Alkaline Secretion Assay
# Compounds were exposed to the duodenal mucosa in barbiturate-anaesthetised rats prepared for in situ titration of duodenal mucosal alkaline secretion, according to the methodology described by Flemström et al in Am. J. Physiol. (1982) 243, G348.
smiles,measurement,value
Cc1cc(Cn2cnc3c2C[C@@H](C(=O)O)N(C(=O)C(c2ccccc2)c2ccccc2)C3)ccc1N(C)C [PD123319],effect of co-administration on the mucosal alkalisation stimulated by title compounds,blocked
